Measurements: ChEMBL document CHEMBL1201862, “PubChem BioAssay data set” (2004)
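These data come from cells grown in 96-well plates and exposed to compound for 48 hours at five concentrations. GI50 = concentration required for 50% inhibition of growth.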 The source made the active and inactive calls. No stated cut-off is given here; in the data, active = GI50 up to about 1.1 µM and inactive = higher.

Legend:
Assay in all cases: growth of human tumour cells (NCI), 48 h
NCI-H226 = tested on: NCI-H226
UO-31 = tested on: UO-31
RXF 393 = tested on: RXF 393
SW-620 = tested on: SW-620
OVCAR-4 = tested on: OVCAR-4
OVCAR-8 = tested on: OVCAR-8
SR = tested on: SR
M14 = tested on: M14
CCRF-CEM = tested on: CCRF-CEM
M19-MEL = tested on: M19-MEL
HCT-15 = tested on: HCT-15
SF-295 = tested on: SF-295
NCI-H460 = tested on: NCI-H460
HT-29 = tested on: HT-29
RPMI-8226 = tested on: RPMI-8226
TK-10 = tested on: TK-10
HCT-116 = tested on: HCT-116
SK-MEL-28 = tested on: SK-MEL-28
U-251 = tested on: U-251
SF-268 = tested on: SF-268
NCI-H522 = tested on: NCI-H522
DMS-114 = tested on: DMS-114
786-0 = tested on: 786-0
UACC-257 = tested on: UACC-257
UACC-62 = tested on: UACC-62
A549 = tested on: A549
HOP-62 = tested on: HOP-62
HOP-18 = tested on: HOP-18
DMS-273 = tested on: DMS-273
SK-MEL-2 = tested on: SK-MEL-2
Malme-3M = tested on: Malme-3M
SK-MEL-5 = tested on: SK-MEL-5
K562 = tested on: K562
ACHN = tested on: ACHN
NCI-H23 = tested on: NCI-H23
EKVX = tested on: EKVX
XF498 = tested on: XF498
COLO 205 = tested on: COLO 205
LXFL 529 = tested on: LXFL 529
SNB-75 = tested on: SNB-75
LOX IMVI = tested on: LOX IMVI
KM12 = tested on: KM12
SNB-19 = tested on: SNB-19
KM-20L2 = tested on: KM-20L2
SNB-78 = tested on: SNB-78
SN12C = tested on: SN12C
MOLT-4 = tested on: MOLT-4
SK-OV-3 = tested on: SK-OV-3
HL-60 = tested on: HL-60

O=C(O)OC12CCCCCC1C(=O)C1CCCCC12 (centres undefined)
GI50 (NCI-H226): > 100 µM (inactive)
GI50 (UO-31): > 100 µM (inactive)
GI50 (RXF 393): 39.3 µM (inactive)
GI50 (SW-620): > 100 µM (inactive)
GI50 (OVCAR-4): > 100 µM (inactive)
GI50 (OVCAR-8): > 100 µM (inactive)
GI50 (SR): 47 µM (inactive)
GI50 (M14): > 100 µM (inactive)
GI50 (CCRF-CEM): > 100 µM (inactive)
GI50 (M19-MEL): > 100 µM (inactive)
GI50 (HCT-15): 78.2 µM
GI50 (SF-295): > 100 µM (inactive)
GI50 (NCI-H460): 77.4 µM (inactive)
GI50 (HT-29): > 100 µM (inactive)
GI50 (RPMI-8226): 43.1 µM (inactive)
GI50 (TK-10): > 100 µM (inactive)
GI50 (HCT-116): 57.4 µM (inactive)
GI50 (SK-MEL-28): > 100 µM (inactive)
GI50 (U-251): > 100 µM (inactive)
GI50 (SF-268): 61.5 µM (inactive)
GI50 (NCI-H522): 65.8 µM (inactive)
GI50 (DMS-114): 82 µM (inactive)
GI50 (786-0): > 100 µM (inactive)
GI50 (UACC-257): > 100 µM (inactive)
GI50 (UACC-62): 71.3 µM (inactive)
GI50 (A549): > 100 µM (inactive)
GI50 (HOP-62): > 100 µM (inactive)
GI50 (HOP-18): > 100 µM (inactive)
GI50 (DMS-273): 62.5 µM (inactive)
GI50 (SK-MEL-2): > 100 µM (inactive)
GI50 (Malme-3M): > 100 µM (inactive)
GI50 (SK-MEL-5): > 100 µM (inactive)
GI50 (K562): 42 µM (inactive)
GI50 (ACHN): > 100 µM (inactive)
GI50 (NCI-H23): > 100 µM (inactive)
GI50 (EKVX): 82.4 µM (inactive)
GI50 (XF498): 82.6 µM (inactive)
GI50 (COLO 205): > 100 µM (inactive)
GI50 (LXFL 529): > 100 µM (inactive)
GI50 (SNB-75): 20.1 µM (inactive)
GI50 (LOX IMVI): > 100 µM (inactive)
GI50 (KM12): > 100 µM (inactive)
GI50 (SNB-19): 89.5 µM (inactive)
GI50 (KM-20L2): > 100 µM (inactive)
GI50 (SNB-78): > 100 µM (inactive)
GI50 (SN12C): > 100 µM (inactive)
GI50 (MOLT-4): 46 µM (inactive)
GI50 (SK-OV-3): > 100 µM (inactive)
GI50 (HL-60): 47 µM (inactive)
